Results: patent US9994758B2, “Microbial metabolism of chlorine oxyanions as a control of biogenic hydrogen sulfide production” (The Regents of the University of California, priority 2011, dated 2018)

What was measured:
Desulfovibrio vulgaris = assay: Inhibition of sulfidogenesis by sulfate-reducing bacteria (D. vulgaris culture, lactate/sulfate medium); type: cell-based
Protocol: Twelve tubes of basal anaerobic medium containing 15 mM lactate and 15 mM sulfate were inoculated with an active culture of D. vulgaris and incubated for 6 hours at 30° C., until a visible increase in optical density was observed. After six hours, the tubes were further inoculated with A. suillum and 15 mM chlorate prior to incubation overnight at 30° C., as outlined in Table 2.

[1] = system: marine sediment slurry microcosms; assay: Sulfide inhibition in marine sediment slurry microcosms; type: cell-based; conditions: addition of chlorate and Dechloromarinus strain NSS, extended incubation for over 250 hours
From the text: In the absence of chlorate and Dechloromarinus strain NSS sulfide is readily produced.

[O-][Cl+2]([O-])O [chlorate]
sulfide production by D. vulgaris relative to control cells incubated without chlorate (Desulfovibrio vulgaris; 15 mM chlorate alone, 24 hours, 30° C., 15 mM lactate and 15 mM sulfate): 49% | sulfide production by D. vulgaris relative to control cells incubated in the absence of A. suillum and chlorate (Desulfovibrio vulgaris; 15 mM chlorate together with A. suillum, 24-hour incubation, 30° C., 15 mM lactate and 15 mM sulfate): 17% | antimicrobial activity against D. vulgaris (Desulfovibrio vulgaris; chlorate at relatively low concentrations (15 mM)): has antimicrobial activity against D. vulgaris | time course of sulfidogenesis by D. vulgaris (FIG. 6) (Desulfovibrio vulgaris; treated with A. suillum (PS) and chlorate at 48 hours, relative to untreated control): immediate inhibition of sulfide production and removal of sulfide from the medium | sulfide production in marine sediment slurry microcosms (FIG. 4) [1]: sulfide inhibition
